Experimental data taken from publication PMC11079029, “Intramolecular autoinhibition regulates the selectivity of PRPF40A tandem WW domains for proline-rich motifs” (Nature Communications, 2024).
Like-named read-outs stand apart in the source and are kept apart here. No end group written: not given here.

Target: T1, PRPF40A WW12 (tandem WW domains, residues 141–236) (Homo sapiens, UniProt O75400)
T1 construct: WW12 141–236, WW12long 141–248, and N-ext-WW12 56–236; 6xHis-TEV site (N, cleaved yes); made in house; host or cells: Escherichia coli BL21(DE3)
Assay: ITC of PRPF40A WW12 with GB1-tagged proline-rich peptides and constructs
Format: binding
Settings: for N (sites): ITC as E1, peptide in the cell, N >1 = more than one WW tandem per peptide; for DH: ITC binding enthalpy; for Kd: ITC
From the text: PRPF40A isoform 1 sequences (N-ter 1–310, WW12short 141–223, WW12 141–236, WW12long 141–248, and N-ext-WW12 56–236) were amplified from a purchased DNA fragment (IDT) and cloned using NcoI and KpnI restriction sites into a pETM11 vector encoding 6xHis and TEV cleavage site as a N-terminal tag. SF1 (Pro A 410–468, Pro B 468–539, Pro C 539–594, Pro D 594–639, Pro BC 468–594, Pro CD 539–639, Pro BCD 468–639 and Pro ABCD 410–639) and SF3A1 (Middle Pro 364–413 and C-ter Pro 552–683) constructs were prepared in a similar manner using a pET24 vector with a 6xHis, GB1 and TEV cleavage site as N-terminal fusion cassette. 16-mer SF1 constructs (Table 1) and polyproline peptides (P6, P8, P10, P13, P16, P19, P22, P25, and P29) were cloned in the same pET24 vector with GB1 tag by direct ligation of purchased oligonucleotides (Eurofins). All peptide sequences contained N and C-terminal common residues to avoid boundary effects on binding: TEVsite-GAMSGS-peptide-SGSN. Mutants of PRPF40A WW12 and N-ext-WW12 constructs were prepared by site-directed mutagenesis. The truncated version of PRPF40A WW12 (141-217) was a gift from Dr. María Macías (IRB, Spain). All used oligonucleotides were purchased from Eurofins Genomics and are shown in Supplementary Table 6.
Resuspended cell pellets in 20 mM Tris pH 8.0, 500 mM NaCl, 10 mM imidazole, 0.5 mM TCEP, and protease inhibitors mix (SERVA) were lysed by cell disruption in a French press. Clear lysates, after centrifugation (at 18,000 g) and filtering, were loaded into Ni-NTA resin. The resin was then washed with 20 mM imidazole containing buffer, and the desired protein was eluted with 500 mM imidazole. PRPF40A constructs were then subjected to TEV protease treatment (homemade at a final concentration of ≈50 μg/ml), dialyzed overnight at 4 °C against an imidazole-free buffer, and then loaded again to Ni-NTA resin; desired digested proteins were obtained in the flow-through and wash fractions while uncleaved protein, TEV protease, and impurities remained bound to the resin. Cleaved PRPF40A proteins and GB1-tagged SF1, SF3A1, and polyproline constructs were further purified by size-exclusion chromatography on a HiLoad 16/60 Superdex 75 column (GE Healthcare) equilibrated with 20 mM sodium phosphate, pH 6.5, 100 mM NaCl and 1 mM DTT buffer. For the purification of PRPF40A WW12 in complex with SF1 peptide, cell pellets of recombinant expression for both proteins were mixed and processed together following the Ni-NTA—TEV digestion—reverse Ni-NTA—SEC-75 protocol; where the complex remained bound in a 1:1 stoichiometry throughout the whole purification (corroborated by NMR). Molecular weight of each sample was confirmed by mass spectrometry, purity was checked by PAGE-SDS, and protein concentrations were determined from the aromatic contribution to the UV absorbance spectra at 280 nm.
Experiments were conducted on a MicroCAl PEAQ-ITC (Malvern Instruments, UK) at 25 °C in 20 mM sodium phosphate pH 6.5 and 100 mM NaCl. PRPF40A was titrated into N-terminal GB1 tagged SF1 or polyproline constructs and vice versa with similar results. Protein concentrations in the cell were around 20–40 μM, while in the syringe ranged between 200 and 500 μM. Experiments were performed at least in duplicate with injections of 1.5 μL (0.4 μL for first point) separated by 150 s delays to recover thermal power baseline and continuous stirring in the cell (750 rpm) for correct mixing. The reference cell was filled with water in all experiments. Data were processed by removing the blank experiment (using digested GB1 fusion protein) and adjusted to one-site binding model with Malvern PEAQ-ITC Analysis software (Malvern Instruments, UK).

[1] = 25 °C, 20 mM sodium phosphate pH 6.5, 100 mM NaCl, GB1-tagged polyproline or SF1 16-mer peptide in the cell, WW tandem in the syringe, one-site model, apparent Kd, average of at least duplicates, read-out: Kd
[2] = SF1 peptides, individual value 1 (replicate 1), read-out: Kd Values with WW12, individual value
[3] = SF1 peptides, individual value 2 (replicate 2), read-out: Kd Values with WW12, individual value
[4] = SF1 peptides, individual value 3 (replicate 3), read-out: Kd Values with WW12, individual value

T1 sequence (O75400 141-236): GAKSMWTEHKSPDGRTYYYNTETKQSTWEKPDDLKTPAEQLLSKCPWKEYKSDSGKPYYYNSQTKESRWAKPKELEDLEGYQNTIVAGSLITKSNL

Substance	N (sites) (WW tandem in the syringe)	DH (as E1) [kcal/mol]	other results
MPPFGMPPAPPPPPPQ [SF1_623–638, GB1-tagged 16-mer from the SF1 C-terminal region]	0.95 ± 0.10	-10.7 ± 3.54	Kd [1]: 23.3 ± 13.3 µM; Kd [2]: 21.8 µM; Kd [3]: 24.8 µM
MPPPPPPPSGQPPPPP [SF1_478–493, GB1-tagged 16-mer from the SF1 C-terminal region]	0.80 ± 0.11	-14.3 ± 0.956	Kd [1]: 9.59 ± 0.9 µM; Kd [2]: 8.26 µM; Kd [3]: 10.3 µM; Kd [4]: 10.2 µM
MQPPPPPMNQGPHPPG [SF1_425–440, GB1-tagged 16-mer from the SF1 C-terminal region]	0.87 ± 0.07	-13.3 ± 1.41	Kd [1]: 20.2 ± 3.1 µM; Kd [2]: 15.9 µM; Kd [3]: 21.8 µM; Kd [4]: 22.9 µM
MYAPPPPPPPPMDPSN [SF1_596–611, GB1-tagged 16-mer from the SF1 C-terminal region]	1.10 ± 0.30	-10.9 ± 8.8	Kd [1]: 65.9 ± 50.7 µM
P10: recombinant GB1-tagged polyproline peptide, 10 prolines (GB1-GAMSGSPPPPPPPPPPSGSN; not fully specified)	0.89 ± 0.11	-9.63 ± 1.24	–
P13: recombinant GB1-tagged polyproline peptide, 13 prolines (GB1-GAMSGSPPPPPPPPPPPPPSGSN; not fully specified)	0.78 ± 0.07	-15.7 ± 1.54	–
P16: recombinant GB1-tagged polyproline peptide, 16 consecutive proline residues (GB1-GAMSGSPPPPPPPPPPPPPPPPSGSN; also: His6 tag state not given here)	0.88 ± 0.08	-15.2 ± 0.621	–
P19: recombinant GB1-tagged polyproline peptide, 19 prolines (GB1-GAMSGSPPPPPPPPPPPPPPPPPPPSGSN; also: His6 tag state not given here)	1.10 ± 0.04	-18.2 ± 0.837	–
P22: recombinant GB1-tagged polyproline peptide, 22 prolines (GB1-GAMSGSPPPPPPPPPPPPPPPPPPPPPPSGSN; also: His6 tag state not given here)	1.39 ± 0.03	-18.6 ± 0.574	–
P25: recombinant GB1-tagged polyproline peptide, 25 prolines (GB1-GAMSGSPPPPPPPPPPPPPPPPPPPPPPPPPSGSN; also: His6 tag state not given here)	2.30 ± 0.09	-16.6 ± 0.645	–
P29: recombinant GB1-tagged polyproline peptide, 29 prolines (GB1-GAMSGSPPPPPPPPPPPPPPPPPPPPPPPPPPPPPSGSN; also: His6 tag state not given here)	2.47 ± 0.09	-15.8 ± 0.502	–
SF1 Pro A: GB1-tagged SF1 construct, residues 410–468 (GB1-GHPMQHNPNGPPPPWMQPPPPPMNQGPHPPGHHGPPPMDQYLGSTPVGSGVYRLHQGKG; also: His6 tag state not given here)	–	–	DH (as E4): -15.1 ± 3.54 kcal/mol
SF1 Pro C: GB1-tagged SF1 construct, residues 539–594, contains the WWbs 16-mer (GB1-GSIPPWQQQQAAAAASPGAPQMQGNPTMVPLPPGVQPPLPPGAPPPPPPPPPGSAG; also: His6 tag state not given here)	–	–	DH (as E4): -20.6 ± 0.22 kcal/mol
SF1 Pro D: GB1-tagged SF1 construct, residues 594–639 (GB1-GMMYAPPPPPPPPMDPSNFVTMMGMGVAGMPPFGMPPAPPPPPPQN; also: His6 tag state not given here)	–	–	DH (as E4): -16 ± 4.52 kcal/mol
SF3A1 Middle Pro: GB1-tagged SF3A1 construct, residues 364–413, contains a PPLP motif (GB1-EGQKVPPPPETPMPPPLPPTPDQVIVRKDYDPKASKPLPPAPAPDEYLVS; also: His6 tag state not given here)	–	–	DH (as E4): -27.25 ± 6.48 kcal/mol
TMVPLPPGVQPPLPPG [SF1_565–580, GB1-tagged 16-mer from the SF1 C-terminal region]	1.06 ± 0.11	-13.5 ± 1.96	Kd [2]: 24 µM; Kd [3]: 37.8 µM; Kd [4]: 23.4 µM; Kd (SF1 peptides, individual value 4 (replicate 4), read-out: Kd Values with WW12, individual value): 36.5 µM
